“Also recorded” adds a separate entry of the source. Read-outs that look alike come from different tables or passages of the source.
What was measured:
[1] = for recommended dose level (RD): patients
Excerpt: The method consists of administration of drug by intravenous infusion over a period of 72 hrs or less at the recommended dose level (RD) with or without combination with other therapeutic agents.
The Recommended Dose (RD) is the highest dose which can be safely administered to a patient producing tolerable, manageable and reversible toxicity according to the Common Toxicity Criteria established by the National Cancer Institute (USA), with no more than 2 out of 6 patients presenting any dose limiting toxicities (DLT). Guidelines for cancer therapy frequently call for administration of chemotherapeutic agents at the highest safe dose at which toxicity is manageable in order to achieve maximum efficacy (DeVita, V. T. Jr., Hellman, S, and Rosenberg, S. A., Cancer: Principles and Practice of Oncology, 3rd ed., 1989, Lipincott, Philadelphia).

[2] = system: advanced and/or metastatic cancers refractory to previous treatments; assay: Clinical trials using the method of the invention: plasma levels and objective responses; type: in vivo, human
Method: The administration is performed in cycles, in the preferred application method, an intravenous infusion of ET734 is given to the patients the first week of each cycle, the patients are allowed to recover for the remainder of the cycle. The preferred duration of each cycle is of either 3 or 4 weeks; multiple cycles can be given as needed. The drug may also be administered each of the first days of each cycle. Dose delays and/or dose reductions and schedule adjustments are performed as needed depending on individual patient tolerance of treatments, in particular does reductions are recommended for patients with higher than normal serum levels of liver transaminases or alkaline phosphatase, or bilirubin.
Definitions for patient responses are adopted from WHO Common Toxicity Criteria and the responses determined following standard medical practice in the field.

[3] = system: advanced/metastatic soft tissue sarcoma (STS) and gastrointestinal stromal tumor (GIST); assay: Example 1: trials with 24 h iv continuous infusion every 3 or 4 weeks in STS and GIST patients; type: in vivo, human; parameters: tolerability of treatment / safety/toxicities observed: dose or concentration left out as unconfirmed; details: for evaluable patients with stable disease or minor responses: after 2 cycles of therapy
[4] = system: advanced/metastatic breast cancer; assay: Example 2: trial with 24 h iv continuous infusion every 3 weeks in pretreated breast cancer patients; type: in vivo, human
Method: Data was analyzed from a trial with 24 h iv continues infusion of ET 743 every 3 weeks on 20 pretreated advanced/metastatic breast cancer patients, at a dose level of 1500 μg/m^2.
all presenting measurable disease and progressing at study entry age 33 to 64 years (median 50 yrs)
performance status 0-1 (ECOG criteria)
[…] number of involved organs: 2 (range 1-6)

[5] = system: advanced/metastatic soft tissue sarcoma; assay: Example 3: trial with 24 h iv continuous infusion every 3 weeks in pretreated sarcoma patients; type: in vivo, human
Method: Data was analyzed from a trial with 24 h iv continues infusion of ET 743 every 3 weeks on 20 pretreated advanced/metastatic soft tissue sarcoma patients, with all except two patients being treated at a dose level of 1500 μg/m^2
35 Soft tissue sarcoma (STS)
22 patients had bulky disease at study entry, with 56% of disease progression under prior regime
age 16 to 71 years (median 45 yrs)
performance status 0 (0-2) (ECOG criteria)
[…] number of prior chemotherapy treatments 2 (1-7)
Most patients had received as prior chemotherapy treatments Anthracyclines and alkylators

sc B 16 tumor = sc B 16 tumor model in male rats, dexamethasone pre-treatment plus ET743; details: Day 14, q2dx5, iv; for Vol. (tumor volume): preliminary results
Method: The sc B 16 tumor model in male rats was used to compare dexamethasone pre-treated (3 mg/kg total dose; −15 min.), ET743 (90 μg/kg TD) animals to ET alone on a q2dx5, iv, schedule.

[6] = system: advanced and/or metastatic cancers refractory to previous treatments; details: cited from earlier work
[7] = system: advanced/metastatic soft tissue sarcoma; assay: Example 3: trial with 24 h iv continuous infusion every 3 weeks in pretreated sarcoma patients; type: in vivo, human; details: 34 evaluable patients
[8] = system: xenografts of breast cancer, non-small cell lung, melanoma and ovarian cancer; details: cited from earlier work
[9] = 24 h iv continuous infusion every 3 or 4 weeks
[10] = 56 cycles administered, 1500 μg/m^2 24 h infusion every 3 weeks

Which “recommended dose level (RD)” value ([1]; 3 hr intravenous infusions) does the source give for `COc1cc2c(cc1O)CCN[C@]21CS[C@@H]2c3c(OC(C)=O)c(C)c4c(c3[C@H](COC1=O)N1[C@@H]2[C@H]2c3c(cc(C)c(OC)c3O)C[C@@H]([C@@H]1O)N2C)OCO4` [ET743, ecteinascidin 743] here?
The value was 1650 microgram per m2 body surface area.

And the “recommended dose level (RD)” value ([1]; 3 hr intravenous infusions, listed as ET-743)?
Its value is 1650 microgram per m2 body surface.

What about the “recommended dose level (RD)” value ([1]; 24 hr intravenous infusions) of the same molecule?
The value was 1500 microgram per m2 of body surface area.

And the “dose limiting toxicities (DLTs)” value ([1]; human, in vivo)?
Its value is “myelosuppression and malaise”.

And the “doses with too large a fraction of patients presenting DLT, too toxic for safe administration” value ([1]; human, in vivo)?
The value was at least 1800 microgram per m2.

And the “patients presenting severe dose limiting toxic responses” value ([1]; human, in vivo)?
Its value is 2 out of 4.

What about the “therapeutic window / toxicity” value ([1]; human, in vivo) of the same molecule?
The value was “positive therapeutic window with manageable toxicity”.

And the “RD for this schedule” value ([1]; intravenous infusion over 5 consecutive days, 24 hr daily)?
Its value is 1625 microgram per m2 of body surface area.

And the “RD for this schedule” value ([1]; intravenous infusion over 72 hr)?
Its value is 1050 microgram per m2 of body surface area.

And the objective responses ([2]; advanced and/or metastatic cancers refractory to previous treatments: soft tissue, bone and gastrointestinal stromal sarcoma, breast cancer and melanoma)?
Its objective responses is “Objective responses were obtained”.

And the clinical marker response ([2]; ovarian cancer)?
The clinical marker response was “positive clinical marker response”.

What about the plasma levels ([2]; patients at RD) of the same molecule?
The plasma levels was “appropriate plasma levels were achieved”.

And the activity ([2]; variety of suboptimal schedules, advanced ocular melanoma and mesothelioma)?
The activity was “Evidence of activity”.

What about the safety/toxicities observed [3, 9] of the same molecule?
Its safety/toxicities observed is “Myelosuppression; also recorded: Temporary/asymptomatic transaminitis; also recorded: Fatigue”.

What about the tolerability of treatment [3, 9] of the same molecule?
Its tolerability of treatment is “very good”.

What about the “evaluable patients with stable disease or minor responses” value ([3]; STS patients with prior chemotherapy treatment) of the same molecule?
Its value is 4 out of 12.

What about the “evaluable patients with stable disease or minor responses” value ([3]; STS patients without any prior chemotherapy treatment) of the same molecule?
The value was 6 out of 10.

And the activity by histology ([3]; liposarcoma, leiomyo sarcoma, and synovial sarcoma)?
The activity by histology was “preliminary evidence of activity”.

What about the “patients achieving disease stabilization” value ([4]; 16 evaluable patients) of the same molecule?
Its value is “Six”.

And the “partial responses (number of patients)” value ([4]; 16 evaluable patients, pleuropulmonary and thoracic skin involvement, no primary resistance to either pretreatment drug)?
The value was “Two”.

And the “Asthenia (grade 2/3), number reported per cycle” value [4, 10]?
The value was 13.

What about the “Asthenia (grade 2/3), reported per cycle (percent)” value [4, 10] of the same molecule?
The value was 23%.

What about the “Neutropenia, grade 3 or 4 toxicities reported per cycle (percent)” value [4, 10] of the same molecule?
The value was 50%.

What about the “Neutropenia, number of grade 3 or 4 toxicities reported per cycle” value [4, 10] of the same molecule?
Its value is 25.

And the “Reversible transaminitis, grade 3 or 4 toxicities reported per cycle (percent)” value [4, 10]?
The value was 60%.

And the “Reversible transaminitis, number of grade 3 or 4 toxicities reported per cycle” value [4, 10]?
The value was 34.

What about the “Thrombocytopenia, grade 3 or 4 toxicities reported per cycle (percent)” value [4, 10] of the same molecule?
Its value is 2%.

What about the “Thrombocytopenia, number of grade 3 or 4 toxicities reported per cycle” value [4, 10] of the same molecule?
Its value is 4.

What about the “patients with sustained decrease in CA 15-3” value ([4]; among the stabilized patients) of the same molecule?
The value was “two”.

What about the “Acute, reversible transaminitis, grade 3 or 4 toxicities reported per cycle” value ([5]; 137 cycles administered) of the same molecule?
Its value is 44%.

What about the “Asthenia (grade 2/3), number reported per cycle” value ([5]; 137 cycles administered) of the same molecule?
The value was 13.

What about the “Asthenia (grade 2/3), reported per cycle (percent)” value ([5]; 137 cycles administered) of the same molecule?
Its value is 23%.

And the “Thrombocytopenia, grade 3 or 4 toxicities reported per cycle” value ([5]; 137 cycles administered)?
Its value is 5%.

What about the “febrile neutropenia, grade 3 or 4 toxicities reported per cycle” value ([5]; 137 cycles administered) of the same molecule?
Its value is 6.5%.

What about the “Neutropenia, grade 3 or 4 toxicities reported per cycle” value ([5]; 137 cycles administered, 1500 μg/m^2 24 h infusion every 3 weeks) of the same molecule?
The value was 34%.

And the “responses in osteo sarcomas” value ([5]; osteo sarcoma patients)?
Its value is 2 out of 3.

What about the “Vol. (tumor volume)” value (sc B 16 tumor) of the same molecule?
The value was 15,243 mm^3.

And the “patient response (case reported in June 98)” value ([6]; breast cancer, dose level of 1800 microgram m2)?
Its value is “breast cancer response”.

What about the “patient response (previously reported case)” value ([6]; melanoma patient, 1 hr infusion) of the same molecule?
Its value is “response in a melanoma patient”.

What about the “disease stabilizations (number)” value [7] of the same molecule?
Its value is 11.

What about the “duration of most disease stabilizations” value [7] of the same molecule?
Its value is at least 3 months.

What about the “minor responses (number)” value [7] of the same molecule?
The value was 3.

What about the “minor responses which became post surgical complete response” value [7] of the same molecule?
The value was “one”.

What about the “partial responses (number)” value [7] of the same molecule?
Its value is 4.

What about the “partial responses (percent)” value [7] of the same molecule?
Its value is 11.7%.

And the “partial responses which became post surgical complete response” value [7]?
Its value is “two”.

What about the “action in animal models” value [8] of the same molecule?
Its value is “promising action”.

What does the source list for `C[C@@H]1C[C@H]2[C@@H]3CCC4=CC(=O)C=C[C@]4(C)[C@@]3(F)[C@@H](O)C[C@]2(C)[C@@]1(O)C(=O)CO` [DEX, dexamethasone]?
nausea ([3]; dexamethasone as a prophylactic anti emetic with ET 743 24 h infusion): essentially eliminated; BW (body weight) (sc B 16 tumor): 217 grams; Vol. (tumor volume) (sc B 16 tumor): 17,252 mm^3
